Assay results as given in PubChem BioAssay (NCI).
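Method: 48-hour compound exposure of cells in 96-well plates, five concentrations, linear interpolation of endpoints. The concentration for full growth arrest is given as TGI.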

What was measured:
Experiment in all cases: growth of human tumour cells (NCI), 48 h
[1] = system: MDA-MB-435
[2] = system: NCI-H460 lung
[3] = system: 786-0 renal
[4] = system: HS 578T breast
[5] = system: SR leukemia
[6] = system: UO-31 renal
[7] = system: SK-MEL-28 melanoma
[8] = system: SW-620 colon
[9] = system: MDA-MB-231 breast
[10] = system: DU-145 prostate
[11] = system: MALME-3M melanoma
[12] = system: OVCAR-8 ovarian
[13] = system: TK-10 renal
[14] = system: A498 renal
[15] = system: NCI-H23 lung
[16] = system: PC-3 prostate
[17] = system: ACHN renal
[18] = system: OVCAR-3 ovarian
[19] = system: HL-60(TB) leukemia
[20] = system: T-47D breast
[21] = system: HOP-62 NSCLC
[22] = system: HCT-15 colon
[23] = system: LOX IMVI melanoma
[24] = system: HCC-2998 colon
[25] = system: MOLT-4 leukemia
[26] = system: UACC-62 melanoma
[27] = system: SF-539 CNS
[28] = system: SNB-19 CNS
[29] = system: SK-OV-3 ovarian
[30] = system: UACC-257 melanoma
[31] = system: A549 NSCLC
[32] = system: SK-MEL-5 melanoma
[33] = system: MCF7 breast
[34] = system: NCI/ADR-RES ovarian
[35] = system: K-562 leukemia
[36] = system: CAKI-1 renal
[37] = system: SF-295 CNS
[38] = system: SK-MEL-2 melanoma
[39] = system: EKVX NSCLC
[40] = system: HCT-116 colon
[41] = system: RXF 393 renal
[42] = system: SNB-75 CNS
[43] = system: NCI-H226 lung
[44] = system: BT-549 breast
[45] = system: SF-268 CNS
[46] = system: MDA-N
[47] = system: U251 CNS
[48] = system: COLO 205 colon
[49] = system: KM12 colon
[50] = system: M14 melanoma
[51] = system: CCRF-CEM leukemia
[52] = system: OVCAR-4 ovarian
[53] = system: IGROV1 ovarian
[54] = system: SN12C renal
[55] = system: HT29 colon
[56] = system: NCI-H522 lung
[57] = system: OVCAR-5 ovarian
[58] = system: HOP-92 NSCLC
[59] = system: RPMI-8226 leukemia

Compound: O=[N+]([O-])c1ccc(NNN=Nc2ccc(-c3nc4ccccc4[nH]3)cc2)c([N+](=O)[O-])c1
- TGI [1]: > 100 µM
- TGI [2]: > 100 µM
- TGI [3]: > 100 µM
- TGI [4]: > 100 µM
- TGI [5]: > 100 µM
- TGI [6]: > 100 µM
- TGI [7]: > 100 µM
- TGI [8]: > 100 µM
- TGI [9]: > 100 µM
- TGI [10]: > 100 µM
- TGI [11]: > 100 µM
- TGI [12]: > 100 µM
- TGI [13]: > 100 µM
- TGI [14]: 89.5 µM
- TGI [15]: > 100 µM
- TGI [16]: > 100 µM
- TGI [17]: > 100 µM
- TGI [18]: > 100 µM
- TGI [19]: > 100 µM
- TGI [20]: > 100 µM
- TGI [21]: > 100 µM
- TGI [22]: > 100 µM
- TGI [23]: > 100 µM
- TGI [24]: > 100 µM
- TGI [25]: > 100 µM
- TGI [26]: 38 µM
- TGI [27]: > 100 µM
- TGI [28]: > 100 µM
- TGI [29]: > 100 µM
- TGI [30]: > 100 µM
- TGI [31]: > 100 µM
- TGI [32]: 87.5 µM
- TGI [33]: 57.6 µM
- TGI [34]: > 100 µM
- TGI [35]: 79.7 µM
- TGI [36]: > 100 µM
- TGI [37]: > 100 µM
- TGI [38]: 88.6 µM
- TGI [39]: 96.4 µM
- TGI [40]: > 100 µM
- TGI [41]: > 100 µM
- TGI [42]: > 100 µM
- TGI [43]: > 100 µM
- TGI [44]: > 100 µM
- TGI [45]: > 100 µM
- TGI [46]: > 100 µM
- TGI [47]: > 100 µM
- TGI [48]: > 100 µM
- TGI [49]: > 100 µM
- TGI [50]: > 100 µM
- TGI [51]: > 100 µM
- TGI [52]: > 100 µM
- TGI [53]: > 100 µM
- TGI [54]: > 100 µM
- TGI [55]: > 100 µM
- TGI [56]: 61 µM
- TGI [57]: > 100 µM
- TGI [58]: > 100 µM

Compound: O=S(=O)(O)c1ccc(Nc2ccnc3ccccc23)cc1
- TGI [1]: > 100 µM
- TGI [3]: > 100 µM
- TGI [4]: > 100 µM
- TGI [5]: > 100 µM
- TGI [6]: > 100 µM
- TGI [7]: > 100 µM
- TGI [8]: > 100 µM
- TGI [9]: > 100 µM
- TGI [10]: > 100 µM
- TGI [11]: > 100 µM
- TGI [12]: > 100 µM
- TGI [13]: > 100 µM
- TGI [14]: > 100 µM
- TGI [15]: > 100 µM
- TGI [16]: > 100 µM
- TGI [17]: > 100 µM
- TGI [19]: > 100 µM
- TGI [20]: > 100 µM
- TGI [21]: > 100 µM
- TGI [22]: > 100 µM
- TGI [23]: > 100 µM
- TGI [24]: > 100 µM
- TGI [25]: > 100 µM
- TGI [26]: > 100 µM
- TGI [27]: > 100 µM
- TGI [28]: > 100 µM
- TGI [29]: > 100 µM
- TGI [30]: > 100 µM
- TGI [31]: > 100 µM
- TGI [32]: > 100 µM
- TGI [33]: > 100 µM
- TGI [34]: > 100 µM
- TGI [35]: > 100 µM
- TGI [36]: > 100 µM
- TGI [37]: > 100 µM
- TGI [38]: > 100 µM
- TGI [39]: > 100 µM
- TGI [40]: > 100 µM
- TGI [41]: > 100 µM
- TGI [42]: > 100 µM
- TGI [43]: > 100 µM
- TGI [44]: > 100 µM
- TGI [45]: > 100 µM
- TGI [46]: > 100 µM
- TGI [47]: > 100 µM
- TGI [48]: > 100 µM
- TGI [49]: > 100 µM
- TGI [50]: > 100 µM
- TGI [51]: > 100 µM
- TGI [59]: > 100 µM
- TGI [52]: > 100 µM
- TGI [53]: > 100 µM
- TGI [54]: > 100 µM
- TGI [55]: > 100 µM
- TGI [56]: > 100 µM
- TGI [57]: > 100 µM
- TGI [58]: > 100 µM
